US11535607B2, “Isoindolines as HDAC inhibitors” (Valo Health, Inc., priority 2018, dated 2022)
Read-outs that look alike come from different tables or passages of the source.

Legend:
HDAC7 = HDAC7 (Homo sapiens (Human), UniProt Q8WUI4); assay: HDAC7 electrophoretic mobility shift assay; type: biochemical; conditions: Table 7, read-out: HDAC IC50, HDAC 7
HDAC6 = HDAC6 (Homo sapiens (Human), UniProt Q9UBN7); assay: HDAC6 electrophoretic mobility shift assay; type: biochemical; conditions: mobility shift assay, Table 7; read-out: HDAC IC50, HDAC 6
[1] = tested on: other 10 members of the HDAC family; assay: HDAC family selectivity profile, electrophoretic mobility shift assays; type: biochemical, human; conditions: HDAC 1-11 profile
[2] = In vitro intrinsic clearance after incubation with mouse liver microsomes; type: in vitro ADME; conditions: Table 6
full-length human HDAC11 = full-length human HDAC11 (Homo sapiens (Human), UniProt Q96DB2); assay: HDAC11 deacetylase electrophoretic mobility shift assay (Nanosyn); type: biochemical; conditions: for IC50: mobility shift assay
Method: The measurement of HD AC 11 deacetylase activity was performed using an electrophoretic mobility shift assay by Nanosyn (Santa Clara, Calif.). Full length human recombinant HD AC 11 protein was expressed in baculoviral system and purified by affinity chromatography. The enzymatic reactions were assembled in 384 well plates in a total volume of 25 μL in a reaction buffer composing: 100 mM HEPES, pH 7.5, 25 mM KCl, 0.1% bovine serum albumin, 0.01% Triton X-100, 1% DMSO (from compounds), 2 μM of the fluorescently labeled peptide substrate and enzyme. The enzyme was added at a final concentration of 10 nM. The peptide substrate FAM-RHKK(tri-fluor-Ac)—NH2 was used. The compounds were tested at 12 concentrations spaced by 3× dilution intervals. Negative control samples (0%-inhibition in the absence of inhibitor) and positive control samples (100%-inhibition) were assembled in replicates of four in each assay plate. The reactions were incubated at 25° C. and quenched by the addition of 45 μL of termination buffer (100 mM HEPES, pH 7.5, 0.01% Triton X-100, 0.05% SDS).
The terminated assay plates were analyzed on LabChip® 3000 microfluidic electrophoresis instrument (Perkin Elmer/Caliper Life Sciences). The fluorescence intensity of the electrophoretically separated de-acetylated product and substrate peptide was measured. Activity in each sample was determined as the product to sum ratio (PSR): P/(S+P), where P is the peak height of the product peptide and S is the peak height of the substrate peptide. Percent inhibition (Pinh) is determined using the following equation: Pinh=(PSR0%−PSRinh)/(PSR0%−PSR100%)*100, where PSRinh, is the product sum ratio in the presence of inhibitor, PSR0% is the average product sum ration in the absence of inhibitor and PSR100% is the average product sum ratio in 100%-inhibition control samples. The IC50 values of inhibitors were determined by fitting the percent inhibition curves with 4 parameter dose-response model using XLfit 4 software.

HDAC8 = HDAC8 (Homo sapiens (Human), UniProt Q9BY41); assay: HDAC8 electrophoretic mobility shift assay; type: biochemical; conditions: Table 7, read-out: HDAC IC50, HDAC 8
[3] = target: HDAC11 fused to Nanoluc luciferase (Homo sapiens (Human), UniProt Q96DB2); assay: BRET target engagement cell assay
HDAC9 = HDAC9 (Homo sapiens (Human), UniProt Q9UKV0); assay: HDAC9 electrophoretic mobility shift assay; type: biochemical; conditions: Table 7, read-out: HDAC IC50, HDAC 9
HDAC10 = HDAC10 (Homo sapiens (Human), UniProt Q969S8); assay: HDAC10 electrophoretic mobility shift assay; type: biochemical; conditions: Table 7, read-out: HDAC IC50, HDAC 10
HDAC2 = HDAC2 (Homo sapiens (Human), UniProt Q92769); assay: HDAC2 electrophoretic mobility shift assay; type: biochemical; conditions: Table 7, read-out: HDAC IC50, HDAC 2
HDAC3 = HDAC3 (Homo sapiens (Human), UniProt O15379); assay: HDAC3 electrophoretic mobility shift assay; type: biochemical; conditions: Table 7, read-out: HDAC IC50, HDAC 3
[4] = Kinetic solubility at pH 7.4; type: physicochemical; conditions: aqueous buffer, kinetic from dmso stock
HDAC5 = HDAC5 (Homo sapiens (Human), UniProt Q9UQL6); assay: HDAC5 electrophoretic mobility shift assay; type: biochemical; conditions: Table 7, read-out: HDAC IC50, HDAC 5
HDAC1 = HDAC1 (Homo sapiens (Human), UniProt Q13547); assay: HDAC1 electrophoretic mobility shift assay; type: biochemical; conditions: Table 7, read-out: HDAC IC50, HDAC 1
HDAC11 = HDAC11 (Homo sapiens (Human), UniProt Q96DB2); assay: Lipophilic efficiency (pIC50 HDAC11 - clogD7.4); conditions: pIC50 HDAC11 - clogD7.4, Table 6
HDAC4 = HDAC4 (Homo sapiens (Human), UniProt P56524); assay: HDAC4 electrophoretic mobility shift assay; type: biochemical; conditions: Table 7, read-out: HDAC IC50, HDAC 4
Sequence of HDAC4 (P56524 whole entry): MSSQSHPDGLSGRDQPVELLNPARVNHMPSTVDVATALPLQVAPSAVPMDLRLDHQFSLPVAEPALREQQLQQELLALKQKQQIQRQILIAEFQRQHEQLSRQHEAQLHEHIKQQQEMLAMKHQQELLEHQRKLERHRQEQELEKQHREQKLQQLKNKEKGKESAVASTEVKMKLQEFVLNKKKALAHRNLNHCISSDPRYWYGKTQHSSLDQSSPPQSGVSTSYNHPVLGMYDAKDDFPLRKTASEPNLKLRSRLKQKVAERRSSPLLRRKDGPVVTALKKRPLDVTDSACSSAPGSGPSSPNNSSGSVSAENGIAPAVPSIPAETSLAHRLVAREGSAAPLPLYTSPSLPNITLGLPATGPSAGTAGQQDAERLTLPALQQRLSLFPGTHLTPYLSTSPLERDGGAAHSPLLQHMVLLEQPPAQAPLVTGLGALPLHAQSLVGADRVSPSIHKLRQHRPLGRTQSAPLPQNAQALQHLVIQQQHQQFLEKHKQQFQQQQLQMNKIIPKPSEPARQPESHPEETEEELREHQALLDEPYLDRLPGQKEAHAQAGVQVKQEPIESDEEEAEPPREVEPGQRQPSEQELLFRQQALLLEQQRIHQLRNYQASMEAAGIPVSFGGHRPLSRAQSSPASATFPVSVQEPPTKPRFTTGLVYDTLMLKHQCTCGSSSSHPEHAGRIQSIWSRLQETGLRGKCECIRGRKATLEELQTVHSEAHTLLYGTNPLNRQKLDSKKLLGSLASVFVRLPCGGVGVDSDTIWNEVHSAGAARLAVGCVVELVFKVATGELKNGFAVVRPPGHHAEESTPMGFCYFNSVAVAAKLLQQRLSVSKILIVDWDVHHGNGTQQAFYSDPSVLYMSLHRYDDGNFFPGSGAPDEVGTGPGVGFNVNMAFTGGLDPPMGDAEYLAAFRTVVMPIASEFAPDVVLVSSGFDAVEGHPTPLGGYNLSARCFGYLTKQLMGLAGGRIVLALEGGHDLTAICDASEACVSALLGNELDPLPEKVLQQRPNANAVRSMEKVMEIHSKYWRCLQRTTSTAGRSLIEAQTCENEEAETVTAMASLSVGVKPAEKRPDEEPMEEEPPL

Sequence of full-length human HDAC11 (Q96DB2 whole entry): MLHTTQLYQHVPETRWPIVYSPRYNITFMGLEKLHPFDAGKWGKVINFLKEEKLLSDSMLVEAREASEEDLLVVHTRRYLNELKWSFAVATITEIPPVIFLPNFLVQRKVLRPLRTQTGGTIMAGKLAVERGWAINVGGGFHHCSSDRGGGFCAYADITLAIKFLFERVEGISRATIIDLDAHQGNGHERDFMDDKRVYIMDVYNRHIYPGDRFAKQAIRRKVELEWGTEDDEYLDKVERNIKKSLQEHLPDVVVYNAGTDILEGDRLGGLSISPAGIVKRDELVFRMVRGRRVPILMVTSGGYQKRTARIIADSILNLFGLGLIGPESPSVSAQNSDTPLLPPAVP
Sequence of HDAC2 (Q92769 whole entry): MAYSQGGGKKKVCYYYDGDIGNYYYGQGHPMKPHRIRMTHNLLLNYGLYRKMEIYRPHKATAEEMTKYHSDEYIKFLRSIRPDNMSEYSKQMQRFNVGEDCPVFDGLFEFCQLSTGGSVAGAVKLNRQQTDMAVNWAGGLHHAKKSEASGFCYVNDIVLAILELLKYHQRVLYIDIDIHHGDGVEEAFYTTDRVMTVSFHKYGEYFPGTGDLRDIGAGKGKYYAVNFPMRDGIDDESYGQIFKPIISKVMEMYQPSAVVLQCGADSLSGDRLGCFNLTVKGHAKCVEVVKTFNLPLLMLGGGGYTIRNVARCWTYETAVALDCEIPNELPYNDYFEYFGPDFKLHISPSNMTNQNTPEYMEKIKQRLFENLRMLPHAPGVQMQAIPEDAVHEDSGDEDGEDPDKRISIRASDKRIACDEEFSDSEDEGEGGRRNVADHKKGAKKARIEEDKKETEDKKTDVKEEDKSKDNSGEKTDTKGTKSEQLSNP
Sequence of HDAC7 (Q8WUI4 whole entry): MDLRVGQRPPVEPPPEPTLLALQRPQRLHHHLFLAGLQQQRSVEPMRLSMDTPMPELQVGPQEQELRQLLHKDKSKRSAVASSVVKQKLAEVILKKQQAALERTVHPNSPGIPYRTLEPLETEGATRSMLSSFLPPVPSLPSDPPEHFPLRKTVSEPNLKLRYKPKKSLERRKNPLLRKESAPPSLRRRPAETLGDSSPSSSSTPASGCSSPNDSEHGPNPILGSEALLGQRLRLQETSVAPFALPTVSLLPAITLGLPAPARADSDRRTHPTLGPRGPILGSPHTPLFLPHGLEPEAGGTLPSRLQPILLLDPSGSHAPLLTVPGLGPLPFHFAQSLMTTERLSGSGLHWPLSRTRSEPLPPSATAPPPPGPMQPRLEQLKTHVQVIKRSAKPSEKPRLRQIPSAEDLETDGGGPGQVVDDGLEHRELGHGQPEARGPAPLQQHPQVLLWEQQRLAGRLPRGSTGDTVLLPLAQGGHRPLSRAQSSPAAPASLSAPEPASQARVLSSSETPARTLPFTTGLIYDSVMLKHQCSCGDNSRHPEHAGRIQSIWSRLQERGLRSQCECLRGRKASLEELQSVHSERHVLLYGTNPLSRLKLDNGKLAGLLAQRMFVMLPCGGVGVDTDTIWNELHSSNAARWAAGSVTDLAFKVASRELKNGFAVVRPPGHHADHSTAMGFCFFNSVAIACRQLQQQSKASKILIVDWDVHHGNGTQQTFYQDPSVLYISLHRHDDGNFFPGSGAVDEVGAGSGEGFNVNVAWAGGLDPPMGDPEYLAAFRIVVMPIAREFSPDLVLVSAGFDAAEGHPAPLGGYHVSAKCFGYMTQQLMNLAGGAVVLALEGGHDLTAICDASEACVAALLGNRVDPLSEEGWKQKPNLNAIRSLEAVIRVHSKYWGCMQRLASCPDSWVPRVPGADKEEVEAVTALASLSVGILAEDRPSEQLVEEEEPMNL
Sequence of HDAC3 (O15379 whole entry): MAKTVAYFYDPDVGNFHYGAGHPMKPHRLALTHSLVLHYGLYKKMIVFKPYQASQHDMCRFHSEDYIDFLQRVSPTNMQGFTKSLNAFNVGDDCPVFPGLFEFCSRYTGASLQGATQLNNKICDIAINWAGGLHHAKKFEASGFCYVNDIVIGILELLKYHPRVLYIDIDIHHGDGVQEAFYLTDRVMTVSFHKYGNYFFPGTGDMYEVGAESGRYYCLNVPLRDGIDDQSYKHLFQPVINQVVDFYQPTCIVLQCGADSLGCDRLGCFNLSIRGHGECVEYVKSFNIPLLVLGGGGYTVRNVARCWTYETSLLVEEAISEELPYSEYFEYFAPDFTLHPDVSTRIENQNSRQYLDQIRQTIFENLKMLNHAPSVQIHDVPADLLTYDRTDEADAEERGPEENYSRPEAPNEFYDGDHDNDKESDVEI
Sequence of HDAC3 (Q9Y618 395-489 partner): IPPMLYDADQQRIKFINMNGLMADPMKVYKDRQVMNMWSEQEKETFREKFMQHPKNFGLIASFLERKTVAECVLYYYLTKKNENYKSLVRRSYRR
Sequence of HDAC11 (Q96DB2 whole entry): as the sequence (Q96DB2 whole entry) above
Sequence of HDAC11 fused to Nanoluc luciferase (Q96DB2 whole entry, the tested form may be a part): as the sequence (Q96DB2 whole entry) above
Sequence of HDAC8 (Q9BY41 whole entry, species assumed, the tested form may be a part): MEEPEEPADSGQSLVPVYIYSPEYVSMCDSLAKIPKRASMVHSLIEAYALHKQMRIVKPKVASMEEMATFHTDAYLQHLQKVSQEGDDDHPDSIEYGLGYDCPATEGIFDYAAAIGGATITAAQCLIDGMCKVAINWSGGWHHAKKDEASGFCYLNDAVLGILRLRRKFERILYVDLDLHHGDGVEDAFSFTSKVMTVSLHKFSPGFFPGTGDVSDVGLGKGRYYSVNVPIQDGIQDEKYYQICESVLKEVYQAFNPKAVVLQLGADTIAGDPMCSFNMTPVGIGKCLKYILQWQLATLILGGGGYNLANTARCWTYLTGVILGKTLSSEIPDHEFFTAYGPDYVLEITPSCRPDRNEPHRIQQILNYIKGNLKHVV
Sequence of HDAC5 (Q9UQL6 whole entry): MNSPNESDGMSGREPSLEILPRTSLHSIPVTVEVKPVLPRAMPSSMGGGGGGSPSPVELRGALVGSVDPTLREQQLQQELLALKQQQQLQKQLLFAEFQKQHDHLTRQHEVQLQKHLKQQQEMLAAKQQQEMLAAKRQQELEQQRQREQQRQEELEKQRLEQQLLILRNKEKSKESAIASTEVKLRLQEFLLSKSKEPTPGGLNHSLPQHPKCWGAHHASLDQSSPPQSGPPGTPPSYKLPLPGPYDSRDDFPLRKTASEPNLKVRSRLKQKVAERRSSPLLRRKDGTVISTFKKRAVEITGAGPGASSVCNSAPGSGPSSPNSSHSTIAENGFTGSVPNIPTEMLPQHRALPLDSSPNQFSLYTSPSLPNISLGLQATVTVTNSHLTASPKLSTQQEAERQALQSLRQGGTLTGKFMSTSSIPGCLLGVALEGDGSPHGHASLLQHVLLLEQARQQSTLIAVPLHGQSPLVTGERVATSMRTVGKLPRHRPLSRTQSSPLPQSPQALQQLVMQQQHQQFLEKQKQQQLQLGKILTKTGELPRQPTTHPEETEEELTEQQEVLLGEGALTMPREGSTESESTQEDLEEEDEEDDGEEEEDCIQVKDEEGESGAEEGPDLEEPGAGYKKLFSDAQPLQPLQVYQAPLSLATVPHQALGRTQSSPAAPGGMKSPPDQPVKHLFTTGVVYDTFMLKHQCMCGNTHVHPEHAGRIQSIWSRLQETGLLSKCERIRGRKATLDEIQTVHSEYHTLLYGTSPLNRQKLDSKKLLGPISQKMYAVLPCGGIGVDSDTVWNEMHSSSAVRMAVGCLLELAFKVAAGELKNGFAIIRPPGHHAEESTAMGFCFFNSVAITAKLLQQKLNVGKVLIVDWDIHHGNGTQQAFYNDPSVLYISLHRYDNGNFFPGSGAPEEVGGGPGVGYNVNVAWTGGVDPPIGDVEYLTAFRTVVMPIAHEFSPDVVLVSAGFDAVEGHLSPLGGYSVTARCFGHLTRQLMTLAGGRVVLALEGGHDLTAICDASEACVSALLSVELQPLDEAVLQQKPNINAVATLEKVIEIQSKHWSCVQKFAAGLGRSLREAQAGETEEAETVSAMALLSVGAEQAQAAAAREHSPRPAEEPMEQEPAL

In the case of `CC1(C)c2cccc(C(N)=O)c2CN1c1cnc(C(F)(F)F)cn1` [Compound 50-1, 1,1-Dimethyl-2-(5-(trifluoromethyl)pyrazin-2-yl)isoindoline-4-carboxamide], the IC50 (HDAC7) is reported as greater than 1000 nM, the IC50 (HDAC6) is reported as greater than 1000 nM and the “activity against all HDACs, in words” value [1] is reported as “inactive against all HDACs”. The microsomal CLint [2] was less than 50 µL/min/mg, the “HDAC11 potency, in words” value (full-length human HDAC11; comparison with parent or lead compound) was “loss of all HDAC11 activity” and the IC50 (full-length human HDAC11; Table 6, read-out: HDAC11 IC50) was greater than 1000 nM. For the same compound, the IC50 (full-length human HDAC11; Table 7, read-out: HDAC IC50, HDAC 11) was greater than 1000 nM, the IC50 (HDAC8) was greater than 1000 nM and the IC50 [3] was greater than 1000 nM. The IC50 (HDAC9) was greater than 1000 nM, the IC50 (HDAC10) was greater than 1000 nM and the IC50 (HDAC2) was greater than 1000 nM. For the same compound, the IC50 (HDAC3) was greater than 1000 nM, the solubility [4] was no more than 30 µM and the IC50 (HDAC5) was greater than 1000 nM. For the same compound, the IC50 (HDAC1) was greater than 1000 nM, the LipE (HDAC11) was “+ (indicates LipE≤5.5)” and the IC50 (HDAC4) was greater than 1000 nM.
